According to ChEMBL document CHEMBL1137197, “Discovery of thiadiazoles as a novel structural class of potent and selective PDE7 inhibitors. Part 1: design, synthesis and structure-activity relationship studies” (Bioorg Med Chem Lett, 2004):
Converted amounts (≈) assume the structure as drawn.

Key:
[1] = molecular target: High affinity 3',5'-cyclic-AMP phosphodiesterase 7A (Homo sapiens, UniProt Q13946); assay: Inhibition of human Phosphodiesterase 7A1 expressed in baculovirus infected Sf9 cells
[2] = molecular target: 3',5'-cyclic-AMP phosphodiesterase 4D (Homo sapiens, UniProt Q08499); assay: Inhibition of human Phosphodiesterase 4D3 expressed in baculovirus infected Sf9 cells
[3] = molecular target: cGMP-inhibited 3',5'-cyclic phosphodiesterase 3A (Homo sapiens, UniProt Q14432); assay: Inhibition of human Phosphodiesterase 3A3 expressed in baculovirus infected Sf9 cells
Phosphodiesterase 1 = Phosphodiesterase 1 (Homo sapiens, UniProt P54750+Q01064+Q14123); assay: Inhibition of human Phosphodiesterase 1 purified from THP-1 cells; type: cell-free
[4] = molecular target: cGMP-specific 3',5'-cyclic phosphodiesterase (Homo sapiens, UniProt O76074); assay: Inhibition of human Phosphodiesterase 5 purified from MCF-7 cells; type: cell-free, MCF7
[5] = Solubility at 7.4 pH; type: physicochemical; conditions: pH 7.4

Chain of High affinity 3',5'-cyclic-AMP phosphodiesterase 7A (Q13946 whole entry): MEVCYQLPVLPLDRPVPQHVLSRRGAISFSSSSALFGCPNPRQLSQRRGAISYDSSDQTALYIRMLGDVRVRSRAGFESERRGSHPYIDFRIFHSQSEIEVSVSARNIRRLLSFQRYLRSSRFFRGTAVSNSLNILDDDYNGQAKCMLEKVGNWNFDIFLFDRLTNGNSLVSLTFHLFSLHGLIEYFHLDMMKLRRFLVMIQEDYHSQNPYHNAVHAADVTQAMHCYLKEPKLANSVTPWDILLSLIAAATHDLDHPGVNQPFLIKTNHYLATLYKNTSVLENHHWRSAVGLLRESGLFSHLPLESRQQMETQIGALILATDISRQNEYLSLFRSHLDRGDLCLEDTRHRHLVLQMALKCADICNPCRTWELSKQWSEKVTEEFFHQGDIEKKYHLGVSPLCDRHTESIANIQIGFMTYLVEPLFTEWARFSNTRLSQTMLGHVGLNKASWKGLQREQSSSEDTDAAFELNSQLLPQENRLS
Chain of cGMP-inhibited 3',5'-cyclic phosphodiesterase 3A (Q14432 whole entry): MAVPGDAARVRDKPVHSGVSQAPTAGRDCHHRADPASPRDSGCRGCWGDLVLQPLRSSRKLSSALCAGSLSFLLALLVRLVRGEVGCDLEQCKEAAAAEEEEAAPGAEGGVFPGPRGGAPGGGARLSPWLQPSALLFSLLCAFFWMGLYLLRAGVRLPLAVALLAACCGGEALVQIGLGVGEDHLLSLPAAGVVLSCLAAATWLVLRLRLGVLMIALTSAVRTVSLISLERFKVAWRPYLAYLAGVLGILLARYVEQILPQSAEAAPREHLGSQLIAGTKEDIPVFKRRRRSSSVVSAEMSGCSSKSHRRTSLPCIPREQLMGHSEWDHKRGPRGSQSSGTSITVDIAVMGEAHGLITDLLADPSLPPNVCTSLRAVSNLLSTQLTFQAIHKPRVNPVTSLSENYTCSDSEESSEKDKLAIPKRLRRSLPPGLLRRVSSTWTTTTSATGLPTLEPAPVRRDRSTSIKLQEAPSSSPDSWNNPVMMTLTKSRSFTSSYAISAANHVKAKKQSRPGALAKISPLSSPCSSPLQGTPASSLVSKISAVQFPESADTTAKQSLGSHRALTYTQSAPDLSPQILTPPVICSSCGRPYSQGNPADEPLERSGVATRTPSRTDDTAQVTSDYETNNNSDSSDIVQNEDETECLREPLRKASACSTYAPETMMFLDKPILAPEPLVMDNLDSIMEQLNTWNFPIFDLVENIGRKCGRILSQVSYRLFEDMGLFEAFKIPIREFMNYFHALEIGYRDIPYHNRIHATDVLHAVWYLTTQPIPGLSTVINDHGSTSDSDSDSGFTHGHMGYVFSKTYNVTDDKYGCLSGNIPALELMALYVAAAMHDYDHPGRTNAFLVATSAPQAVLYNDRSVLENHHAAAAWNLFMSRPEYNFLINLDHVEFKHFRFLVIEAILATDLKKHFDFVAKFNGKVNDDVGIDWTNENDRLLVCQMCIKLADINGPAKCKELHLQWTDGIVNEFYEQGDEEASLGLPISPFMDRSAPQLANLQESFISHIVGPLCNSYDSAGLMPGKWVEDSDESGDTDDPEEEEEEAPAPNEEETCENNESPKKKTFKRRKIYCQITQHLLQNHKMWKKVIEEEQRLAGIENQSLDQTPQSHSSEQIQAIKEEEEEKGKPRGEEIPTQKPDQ
Chain of 3',5'-cyclic-AMP phosphodiesterase 4D (Q08499 whole entry): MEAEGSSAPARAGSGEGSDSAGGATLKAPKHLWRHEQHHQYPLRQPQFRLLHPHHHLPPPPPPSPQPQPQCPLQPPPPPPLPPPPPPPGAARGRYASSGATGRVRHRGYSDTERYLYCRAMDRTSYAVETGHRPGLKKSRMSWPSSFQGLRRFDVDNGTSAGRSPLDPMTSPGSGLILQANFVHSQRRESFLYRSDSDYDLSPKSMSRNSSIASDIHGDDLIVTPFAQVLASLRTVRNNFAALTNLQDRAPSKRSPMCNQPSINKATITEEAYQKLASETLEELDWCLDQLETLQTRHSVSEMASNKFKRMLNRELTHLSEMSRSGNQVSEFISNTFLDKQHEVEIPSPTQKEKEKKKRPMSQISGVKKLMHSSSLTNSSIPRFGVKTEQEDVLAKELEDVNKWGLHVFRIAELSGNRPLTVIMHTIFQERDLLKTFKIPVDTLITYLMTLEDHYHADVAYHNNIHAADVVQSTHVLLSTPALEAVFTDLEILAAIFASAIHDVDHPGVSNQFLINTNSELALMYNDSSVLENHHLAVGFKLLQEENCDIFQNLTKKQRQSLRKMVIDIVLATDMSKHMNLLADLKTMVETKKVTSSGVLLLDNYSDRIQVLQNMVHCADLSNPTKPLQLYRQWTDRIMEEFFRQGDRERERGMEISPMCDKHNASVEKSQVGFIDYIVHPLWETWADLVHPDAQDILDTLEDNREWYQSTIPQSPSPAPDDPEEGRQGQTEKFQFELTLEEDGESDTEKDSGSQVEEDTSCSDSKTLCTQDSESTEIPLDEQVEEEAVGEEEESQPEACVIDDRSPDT

SMILES	IC50 [1] [µM]	IC50 [2] [µM]	IC50 [3] [µM]	IC50 (Phosphodiesterase 1) [µM]	IC50 [4] [µM]	solubility [5] [µg/mL]
Cn1nc(-c2ccc(Cl)cc2)s/c1=N\c1cccc(C(=O)O)c1O	0.26	14.2	9.83	9.28	5.18	
CCC/N=c1\sc(-c2ccc(Cl)cc2)nn1C	7.7	26				
Cn1nc(-c2ccc(Cl)cc2)s/c1=N\c1ccc(F)c(C(=O)O)c1	0.16	39.7	17	21.58	17.9	
Cc1nc(N)c2ccc(-c3nn(C)/c(=N/C4CCCCC4)s3)cc2n1	0.0039	92.3				
Cn1nc(-c2ccc(Cl)cc2)s/c1=N\c1cccc(O)c1	1.8	> 101	6.13	9.81	10.9	
Cn1nc(-c2cccc(O)c2)s/c1=N\C1CCCCC1		22.2				
Cn1nc(-c2ccc(Cl)c(S(N)(=O)=O)c2)s/c1=N\C1CCCCC1	0.06	5.9				
COC(=O)c1ccc(-c2nn(C)/c(=N/C3CCCCC3)s2)cc1		95.5				
Cn1nc(-c2ccc(C(=O)NCCN3CCOCC3)cc2)s/c1=N\C1CCCCC1	0.03	8.77				17 (≈ 39.6 µM)
CC(=O)Nc1ccc(-c2nn(C)/c(=N/C3CCCCC3)s2)cc1		34.2				
CN(C)CCNC(=O)c1ccc(-c2nn(C)/c(=N/C3CCCCC3)s2)cc1	0.06	33.3				83 (≈ 214 µM)
Cn1nc(-c2ccc(Cl)cc2)s/c1=N\c1cccc(C(=O)O)c1	0.14	21.3	7.47	16.38	7.27	
Cn1nc(-c2ccc(Cl)cc2)s/c1=N\c1cccc(-c2noc(O)n2)c1	0.44	5.63	1.89	3.56	7.56	
COC(=O)c1ccccc1-c1nn(C)/c(=N/C2CCCCC2)s1	7.5	30				
Cn1nc(-c2ccc(Cl)cc2)s/c1=N\C1CN2CCC1C2 (stereo unspecified)	5.9	79				
Cn1nc(-c2ccc(Cl)cc2)s/c1=N\c1cccc(-c2nn[nH]n2)c1	0.08	4.26	1.71	3.34	7	

SMILES	IC50 [1] [µM]	IC50 [2] [µM]	IC50 [3] [µM]	IC50 (Phosphodiesterase 1) [µM]	IC50 [4] [µM]	solubility [5] [µg/mL]
Cn1nc(-c2ccc(Cl)cc2)s/c1=N\c1cccc(F)c1	6.6	> 101	> 101	> 101	> 101	
Cn1nc(-c2ccc(Cl)cc2)s/c1=N\c1c(O)cccc1C(=O)O	1.31	58.2	49.4	28.84	18.8	
Cn1nc(-c2ccc(Cl)cc2)s/c1=N\C1CCC1	4.8	6.3				
Cn1nc(-c2ccc(C(N)=O)cc2)s/c1=N\C1CCCCC1	0.06	15.3				
Cn1nc(-c2ccc(S(N)(=O)=O)cc2)s/c1=N\C1CCCCC1	0.15	11				
COc1cc(-c2nn(C)/c(=N/C3CCCCC3)s2)ccc1C(N)=O	0.47	> 101				
Cn1nc(-c2ccc(Cl)cc2)s/c1=N\c1ccc(O)c(C(=O)O)c1	0.15	7.05	5.58	5.23	3.97	
Cn1nc(-c2ccc(Cl)cc2)s/c1=N\C1CCCCCCC1	1.65	> 101				
Cc1cccc(C(=O)O)c1/N=c1\sc(-c2ccc(Cl)cc2)nn1C	1.37	20.5	20.5	14.06	23.6	
CC(C)/N=c1\sc(-c2ccc(Cl)cc2)nn1C	3.9	17				
Cn1nc(-c2ccccc2O)s/c1=N\C1CCCCC1	6.4	71				
Cn1nc(-c2ccc(Cl)cc2)s/c1=N\C1CC2CCC1C2 (stereo unspecified)		> 101				
Cn1nc(-c2ccc(Cl)cc2)s/c1=N\c1ccccc1	2.95	38				
Cn1nc(-c2ccc(Cl)cc2)s/c1=N\C(C)(C)CO	1.9	37				
Cn1nc(-c2ccc(C(=O)O)cc2)s/c1=N\C1CCCCC1		32.2				
Cn1nc(-c2ccc(Cl)cc2)s/c1=N\c1cccc(C#N)c1	5.7	36.3	47.2	> 101	> 101	

More lines, now with the values ahead:

IC50 [1] [µM]	IC50 [2] [µM]	IC50 [3] [µM]	IC50 (Phosphodiesterase 1) [µM]	IC50 [4] [µM]	solubility [5] [µg/mL]	SMILES
5.6	> 101					CCC(CC)/N=c1\sc(-c2ccc(Cl)cc2)nn1C
4.6	> 101	30.7	28.93	40.3		Cn1nc(-c2ccc(Cl)cc2)s/c1=N\c1ccc(C(=O)O)cc1
	> 101					Cn1nc(-c2cccc(Cl)c2)s/c1=N\C1CCCCC1
2.13	23	8.57	40.34	20.2		Cn1nc(-c2ccc(Cl)cc2)s/c1=N\c1cccc(CC(=O)O)c1
0.56	25.7					Cn1nc(-c2ccc(N)cc2)s/c1=N\C1CCCCC1
	15					Cn1nc(-c2cccc(S(N)(=O)=O)c2)s/c1=N\C1CCCCC1
1.5	57					Cn1nc(-c2ccc(Cl)cc2)s/c1=N\C1CCCCC1
0.02	> 101					Cn1nc(-c2ccc3c(N)ncnc3c2)s/c1=N\C1CCCCC1
0.47	> 101					CN(C)CCN(C)C(=O)c1ccc(-c2nn(C)/c(=N/C3CCCCC3)s2)cc1
0.09	19.3					Cn1nc(-c2cccc(C(N)=O)c2)s/c1=N\C1CCCCC1
3.08	81.5					Cn1nc(-c2ccc(Cl)cc2)s/c1=N\C1CCCC1
5.9	> 101					Cn1nc(-c2ccc(Cl)cc2)s/c1=N\C1CCC(N)CC1 (stereo unspecified)
	40					Cn1nc(-c2ccccc2Cl)s/c1=N\C1CCCCC1
0.12	19.3					Cn1nc(-c2ccc(C(N)=O)c(O)c2)s/c1=N\C1CCCCC1
0.93	44.7					Cc1cc(-c2nn(C)/c(=N/C3CCCCC3)s2)ccc1C(N)=O
0.13	25					Cn1nc(-c2ccc(S(C)(=O)=O)cc2)s/c1=N\C1CCCCC1
0.14	19					COC(=O)c1cccc(-c2nn(C)/c(=N/C3CCCCC3)s2)c1
0.08	26					Cn1nc(-c2ccc(C(N)=O)c(N)c2)s/c1=N\C1CCCCC1
1.7	13	101	> 101	> 101		Cn1nc(-c2ccc(Cl)cc2)s/c1=N\c1ccc(O)cc1
2.2	> 101	> 101	85.68	101		Cn1nc(-c2ccc(Cl)cc2)s/c1=N\c1ccc(F)cc1
1.63	44.5	2.65	7.83	> 101		Cn1nc(-c2ccc(Cl)cc2)s/c1=N\c1cccc(C(N)=O)c1
	12.2					Cn1nc(-c2ccc(O)cc2)s/c1=N\C1CCCCC1
0.06	11.9					COc1c(O)cc(-c2nn(C)/c(=N/C3CCCCC3)s2)cc1O
5.3	> 101	> 101	> 101	> 101		Cn1nc(-c2ccc(Cl)cc2)s/c1=N\c1ccccc1O
4	> 101					Cn1nc(-c2ccc(Cl)cc2)s/c1=N\C1(CO)CCCC1
0.02	5.84					CCNS(=O)(=O)c1cc(-c2nn(C)/c(=N/C3CCCCC3)s2)ccc1Cl
	22.3					Cn1nc(-c2cccc(C(=O)O)c2)s/c1=N\C1CCCCC1
